The subject of the series is Rattus norvegicus. To be noted: for LC50 / LD50: acute.
[1] abbreviates: reproduction developmental, duration: 83 days, oral, gavage, Sprague-Dawley.
Where [2] appears, read: reproduction developmental, duration: 24 weeks, inhalation, generation: F0.
Setting [3] is: reproduction developmental, duration: 24 weeks, inhalation, generation: F1.
Setting [4] is: reproduction developmental, duration: 10 days, oral, gavage, F.
The mark [5] stands for this setting: short-term, duration: 12 days, inhalation, F, Fischer 344.
Where [6] appears, read: short-term, duration: 12 days, inhalation, M, Fischer 344.
Setting [7] is: short-term, duration: 14 days, oral, gavage, F, Crj:CD(SD).
Where [8] appears, read: short-term, duration: 14 days, oral, gavage, M, Crj:CD(SD).
The mark [9] stands for this setting: subchronic, duration: 13 weeks, inhalation, F, Fischer 344.
Setting [10] is: subchronic, duration: 13 weeks, inhalation, M, Fischer 344.
[11] abbreviates: reproduction developmental, duration: 7 days, oral, gavage, F, CD Strain from Charles River.

≈ marks a conversion by molar mass, not a printed value. Where “and” joins values, the source holds several entries; their conditions need not be identical. Equal values may be shown once. Bounds are passed on as bounds.

A word on the NOAEL: it is the highest dose or exposure tested at which no adverse effect was seen. Under setting [1], `CCCCCCCCC(=O)Oc1ccccc1S(=O)(=O)[O-].[Na+]` [Sodium (nonanoyloxy)benzenesulfonate] registered an LOAEC of 100 mg/kg-day and an NOAEL of 1000 mg/kg-day.

As a reminder, the LC50 is the concentration lethal to half of the exposed cells or organisms. Consider `C=C(C)CC` [2-Methylbutene], for which the 50% lethal concentration (LC50) (inhalation, Wistar) is > 61000 ppm. In addition, under “reproduction developmental, inhalation, Sprague-Dawley”, the no-observed-adverse-effect level (NOAEL) was found to be 7000 ppm.

What is called LD50 is the dose expected to kill half of the subjects tested. A high value points to lower toxicity. As to `CCCCCCCCCCCCCOC(=O)CCSCCC(=O)OCCCCCCCCCCCCC` [Di(tridecyl) thiodipropionate], under “oral”, the LD50 was > 2000 mg/kg.

For `CCCCCCC(C)(C)C(=O)OCC1CO1` (configuration not stated) [Glycidyl neodecanoate], the median lethal dose (LD50) was > 4000 mg/kg (dermal, Wistar) and > 10000 mg/kg (oral, gavage, Wistar).

For the molecule `CC(C)(C)c1cccc(C(C)(C)C)c1O` [2,6-Di-tert-butylphenol], the LD50 by setting is: (oral, gavage) 6290 mg/kg; (oral, gavage, Sprague-Dawley) > 5000 mg/kg. The NOAEL reads like this: (developmental, oral, gavage, Wistar) > 750 mg/kg-day; (reproduction developmental, oral, gavage, Wistar) 150 mg/kg-day; (short-term, duration: 28 days, oral, gavage, Wistar) 15 mg/kg-day.

As for `O=[N+]([O-])c1ccc(C=Cc2ccc([N+](=O)[O-])cc2S(=O)(=O)[O-])c(S(=O)(=O)[O-])c1.[Na+].[Na+]` [Disodium 4,4'-dinitro-2,2'-stilbenedisulfonate], for the setting “oral”, the LD50 is > 16000 mg/kg.

Regarding `CCCCCCCCCCc1cc(Oc2ccc(S(=O)(=O)O)cc2)ccc1S(=O)(=O)O` [Decyl(sulfophenoxy)benzenesulfonic acid], the median lethal dose (LD50) by setting is: (oral, gavage, Fischer 344) ≥ 1000 mg/kg and ≤ 2000 mg/kg; (oral, gavage, Sprague-Dawley) 3010 mg/kg.

What is called LOAEL is the lowest tested level that showed an adverse finding. Regarding `C1COCO1` [1,3-Dioxolane], the median lethal concentration (LC50) (inhalation, Crl:CD1) was found to be 68.4 µg/mL (≈ 923 µM). Also, the LD50 (oral, gavage, Sprague-Dawley) turned out to be 5200 mg/kg. In addition, the lowest observed adverse effect level (LOAEL) was 1000 mg/kg-day (developmental, duration: 10 days, oral, gavage); > 379 mg/m3 under setting [2]; > 379 mg/m3 under setting [3]; 500 mg/kg-day under setting [4]; 7030 mg/m3 under setting [5]; 7030 mg/m3 under setting [6]. Also, the lowest-observed-adverse-effect level (LOAEL) runs as follows: under setting [7], 250 mg/kg-day; under setting [8], 250 mg/kg-day; under setting [9], 3030 mg/m3; under setting [10], 9120 mg/m3. Also, the NOAEL reads like this: under setting [2], 379 mg/m3; under setting [3], 379 mg/m3; under setting [4], 250 mg/kg-day; under setting [5], 1560 mg/m3; under setting [6], 1560 mg/m3; under setting [7], 75 mg/kg-day. The NOAEL runs as follows: under setting [8], 75 mg/kg-day; under setting [9], 903 mg/m3; under setting [10], 3030 mg/m3.

For `CCCCCCCCCCOC1CCS(=O)(=O)C1` (configuration not stated) [Thiophene, 3-(decyloxy)tetrahydro-, 1,1-dioxide], the NOAEL (short-term, duration: 28 days, oral, gavage, M, Sprague-Dawley) came to 100 mg/kg-day.

As to `CC(C)(N)C#N` [2-Amino-2-methylpropionitrile], the median lethal dose (LD50) (oral, Sprague-Dawley) was ≥ 10 mg/kg and ≤ 30 mg/kg. This molecule showed a no observed adverse effect level (NOAEL) (short-term, duration: 2 weeks, inhalation, M, Sprague-Dawley) of 75.7 mg/m3.

With `CC12CCCCC1C(=O)OC2=O` (configuration not stated) [Methylhexahydrophthalic anhydride], the median lethal dose (LD50) (oral) was 3300 mg/kg.

As to `O=P(CCCl)(OCCCl)OCCCl` [Bis(2-chloroethyl) 2-chloroethylphosphonate], the 50% lethal dose (LD50) (oral, gavage, Sprague-Dawley) is 580 mg/kg and 810 mg/kg. The NOAEL runs as follows: (developmental, duration: 14 days, oral, gavage, Sprague-Dawley) ≤ 600 mg/kg-day; (reproduction developmental, duration: 14 days, oral, gavage, F, Sprague-Dawley) 400 mg/kg-day.

On to `OP(O)c1ccccc1` [Phenylphosphinic acid], for which the LD50 (oral, gavage) was 1470 mg/kg and 1710 mg/kg. The no-observed-adverse-effect level (NOAEL) (subchronic, duration: 31 days, oral, diet) came to 960 mg/kg-day.

Regarding `NCCCCCCN` [1,6-Hexanediamine], under “inhalation, Crl”, the LC50 is > 0.95 µg/mL. In addition, the median lethal dose (LD50) (oral, gavage, Crl:CD(SD)) is 1130 mg/kg and 792 mg/kg. For the same molecule, the lowest observed adverse effect level (LOAEL) is 184 mg/kg-day (developmental, duration: 7 days, oral, gavage, CD Strain from Charles River) and 184 mg/kg-day under setting [11]. For the same molecule, the no-observed-adverse-effect level (NOAEL) by setting is: (reproduction developmental, duration: 40 weeks, oral, diet, Charles River COBS CD, Portage Michigan) 150 mg/kg-day; under setting [11], 112 mg/kg-day; (subchronic, duration: 13 weeks, Inhalation, Crl:CD(SD)) 12.8 mg/m3.

Source of the values: EPA's ToxValDB 9.5.
